What was measured:
[1] = target: T1, serotonin 5-HT1A receptor (Homo sapiens, UniProt P08908); conditions: cited from earlier work
T1 sequence (P08908 1-422): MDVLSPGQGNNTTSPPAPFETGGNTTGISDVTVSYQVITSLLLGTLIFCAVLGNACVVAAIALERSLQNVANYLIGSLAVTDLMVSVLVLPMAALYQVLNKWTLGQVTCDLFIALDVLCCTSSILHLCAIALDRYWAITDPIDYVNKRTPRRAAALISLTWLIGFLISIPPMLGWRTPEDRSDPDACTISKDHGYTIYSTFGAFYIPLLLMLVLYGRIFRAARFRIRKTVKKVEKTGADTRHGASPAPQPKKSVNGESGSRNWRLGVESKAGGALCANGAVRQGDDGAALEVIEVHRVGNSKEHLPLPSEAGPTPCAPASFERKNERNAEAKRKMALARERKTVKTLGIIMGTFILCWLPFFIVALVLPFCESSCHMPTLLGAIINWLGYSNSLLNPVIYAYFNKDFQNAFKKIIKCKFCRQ

[2] = target: dopamine-D2 receptor (Homo sapiens, UniProt P14416); conditions: cited from earlier work
dopamine-D2 receptor, sequence (P14416 whole entry, species assumed): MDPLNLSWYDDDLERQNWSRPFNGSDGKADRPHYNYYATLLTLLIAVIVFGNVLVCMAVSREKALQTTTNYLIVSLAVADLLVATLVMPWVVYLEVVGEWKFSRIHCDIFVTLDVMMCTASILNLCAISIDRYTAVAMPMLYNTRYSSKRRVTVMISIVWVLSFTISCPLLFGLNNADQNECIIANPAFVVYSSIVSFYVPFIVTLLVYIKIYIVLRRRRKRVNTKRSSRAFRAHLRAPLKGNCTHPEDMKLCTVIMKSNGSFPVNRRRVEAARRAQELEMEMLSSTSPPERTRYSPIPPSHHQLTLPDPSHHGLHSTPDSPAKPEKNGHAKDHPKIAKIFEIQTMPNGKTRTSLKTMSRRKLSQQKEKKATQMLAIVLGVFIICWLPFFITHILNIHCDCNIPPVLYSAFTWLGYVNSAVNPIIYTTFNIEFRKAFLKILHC

[3] = Slurry experiments of α- and β-polymorphs (crystal modification by XRPD); type: physicochemical; conditions: for Crystal modifications by XRPD, slurry experiment, after seeding: seeded with 15-20 mg of the other form, shaken 1 week; for Crystal modifications by XRPD, slurry experiment, before seeding: shaken 1 day; for Crystal modifications by XRPD, slurry experiment: before/after seeding not distinguished
Procedure: (§1) Relative stability of the α- and β-polymorphs of pardoprunox were determined by ageing and slurry experiments in six different solvents. The crystal modification of the solid material was determined using XRPD. For mixtures, amounts of α and β were determined using semi-quantitative calculations, based on the ratio of peak heights of specific reflections of the α- and β-polymorphs, respectively. A peak at 23.3° 2θwas used for α-polymorphs, and one at 15.3° 2θfor β-polymorphs. Due to effects of sample preparation, crystal orientation and differences in response factors, this estimation is semi-quantitative.
(§2) For slurry experiments, two series of saturated solutions of a specific polymorphic (α or β) form were shaken at 375 rpm for one day in six different solvents, one series at ambient temperature and one at 50° C. 40 ml tubes were filled with 0.5 g of the appropriate polymorphic form, and 25 ml of solvent (or mixture). After 1 day about 2.5 ml of sample was taken from each tube, filtered and dried at ambient temperature under reduced pressure. Subsequently the crystal modification was determined. After the samples were taken each tube was seeded with 15-20 mg of the other polymorphic form. Then, all tubes were shaken for 1 week at 375 rpm at ambient temperature or at 50° C. Finally, the precipitate was filtered and dried at ambient temperature under reduced pressure and the crystal modification was determined.

[4] = Stability tests: relative stability from ageing and slurry experiments; type: physicochemical; conditions: for Conversion from β- to α-polymorph: ageing and slurry, ambient temperature and 50° C.; for Relative stability of the polymorphs: at the applied experimental conditions (ageing and slurry), hydrochloride
Procedure: as §1
(§3) For ageing experiments, two series of saturated solutions of a specific polymorphic (α or β) form were shaken at 375 rpm, for one week, in six different solvents, one series at ambient temperature (ca. 20° C.) and one at 50° C. 40 ml tubes were filled with 0.5 g of the appropriate polymorphic form, and 25 ml of solvent (or mixture). After a week the precipitate was filtered and dried at ambient temperature under reduced pressure.
as §2

[5] = Ageing experiments of α- and β-polymorphs (crystal modification by XRPD); type: physicochemical; conditions: shaken one week
Procedure: as §1, §3

[6] = toluene/methanol (10:3), 50° C.
[7] = toluene/methanol (10:3), ambient

SMILES: CN1CCN(c2cccc3[nH]c(=O)oc23)CC1.Cl [pardoprunox, 7-(4-methyl-1-piperazinyl)benzoxazol-2(3H)-one mono-hydrochloride]
- Functional activity at serotonin 5-HT1A receptor [1]: full serotonin 5-HT1A receptor agonist
- Functional activity at dopamine-D2 receptor [2]: partial dopamine-D2 receptor agonist

SMILES: CN1CCN(c2cccc3[nH]c(=O)oc23)CC1.Cl [β-polymorph, 7-[(4-methyl)-1-piperazinyl]-2(3H)-benzoxazolone hydrochloride]
- Crystal modifications by XRPD, slurry experiment, after seeding ([3]; 96% ethanol, 50° C.): α
- Crystal modifications by XRPD, slurry experiment, before seeding ([3]; 96% ethanol, 50° C.): α
- Crystal modifications by XRPD, slurry experiment, after seeding ([3]; 96% ethanol, ambient): α
- Crystal modifications by XRPD, slurry experiment, before seeding ([3]; 96% ethanol, ambient): α
- Crystal modifications by XRPD, slurry experiment, after seeding ([3]; acetonitrile, 50° C.): α
- Crystal modifications by XRPD, slurry experiment, after seeding [3, 6]: α
- Crystal modifications by XRPD, slurry experiment, before seeding [3, 6]: α
- Crystal modifications by XRPD, slurry experiment, after seeding [3, 7]: α
- Conversion from β- to α-polymorph ([4]; acetonitrile): substantial conversion
- Conversion from β- to α-polymorph ([4]; ethanol and 10:3 toluene/methanol mixture): complete conversion
- Conversion from β- to α-polymorph ([4]; other solvents): the conversion was minimal
- Crystal modifications by XRPD after ageing ([5]; 96% ethanol, 50° C.): α
- Crystal modifications by XRPD after ageing ([5]; 96% ethanol, ambient (ca. 20° C.), hydrochloride): α
- Crystal modifications by XRPD after ageing [5, 6]: α
- Crystal modifications by XRPD after ageing [5, 7]: α

SMILES: CN1CCN(c2cccc3[nH]c(=O)oc23)CC1.Cl [α-polymorph, 7-[(4-methyl)-1-piperazinyl]-2(3H)-benzoxazolone hydrochloride]
- Crystal modifications by XRPD, slurry experiment ([3]; 1,2-dimethoxy ethane, 50° C.): α
- Crystal modifications by XRPD, slurry experiment ([3]; 1,2-dimethoxy ethane, ambient): α
- Crystal modifications by XRPD, slurry experiment ([3]; 96% ethanol, 50° C.): α
- Crystal modifications by XRPD, slurry experiment ([3]; acetonitrile, 50° C.): α
- Crystal modifications by XRPD, slurry experiment ([3]; acetonitrile, ambient): α
- Crystal modifications by XRPD, slurry experiment ([3]; ethyl acetate/isopropanol (2:1), 50° C.): α
- Crystal modifications by XRPD, slurry experiment ([3]; ethyl acetate/isopropanol (2:1), ambient): α
- Crystal modifications by XRPD, slurry experiment ([3]; methyl ethyl ketone, 50° C.): α
- Crystal modifications by XRPD, slurry experiment ([3]; methyl ethyl ketone, ambient): α
- Crystal modifications by XRPD, slurry experiment [3, 6]: α
- Crystal modifications by XRPD, slurry experiment [3, 7]: α
- Conversion from α- to β-polymorph ([4]; ageing and slurry experiments, all solvents): Neither in ageing nor in slurry experiments, was conversion from α- to β-polymorph observed
- Relative stability of the polymorphs ([4]; listed as a-polymorph): more stable than the β-polymorph
- Relative stability of the polymorphs ([4]; listed as crystal modification a): more stable than crystal modification β
- Crystal modifications by XRPD after ageing ([5]; 1,2-dimethoxy ethane, 50° C., hydrochloride): α
- Crystal modifications by XRPD after ageing ([5]; 1,2-dimethoxy ethane, ambient, hydrochloride): α
- Crystal modifications by XRPD after ageing ([5]; 96% ethanol, 50° C.): α
- Crystal modifications by XRPD after ageing ([5]; acetonitrile, 50° C., hydrochloride): α
- Crystal modifications by XRPD after ageing ([5]; acetonitrile, ambient, hydrochloride): α
- Crystal modifications by XRPD after ageing ([5]; ethyl acetate/isopropanol (2:1), 50° C., hydrochloride): α
- Crystal modifications by XRPD after ageing ([5]; ethyl acetate/isopropanol (2:1), ambient, hydrochloride): α
- Crystal modifications by XRPD after ageing ([5]; methyl ethyl ketone, 50° C., hydrochloride): α
- Crystal modifications by XRPD after ageing ([5]; methyl ethyl ketone, ambient, hydrochloride): α
- Crystal modifications by XRPD after ageing [5, 6]: α
- Crystal modifications by XRPD after ageing [5, 7]: α

Source: patent US20110086862A1, “POLYMORPHS OF PARDOPRUNOX” (priority 2009, published 2011)
